Experiment: xn = mol fraction of the nth substance listed
Conditions: 102 kPa, Liquid; for mass density: Vibrating tube method; for viscosity: Concentric cylinders viscometry; for speed of sound: Frequency=3 MHz, Single path-length method

CCCCCCC1CCCCC1 [hexylcyclohexane] + CCCCCCCCCCCC
Conditions | mass density, 303.15 K [kg/m3] | mass density, 313.15 K [kg/m3] | mass density, 323.15 K [kg/m3] | mass density, 333.15 K [kg/m3] | speed of sound, 313.15 K [m/s] | speed of sound, 323.15 K [m/s] | speed of sound, 333.15 K [m/s] | viscosity, 313.15 K [mPa·s] | viscosity, 323.15 K [mPa·s] | viscosity, 333.15 K [mPa·s]
x1 = 0.1002 | – | – | – | – | – | – | – | 1.11 | 0.958 | 0.833
x1 = 0.1009 | – | 739.73 | 732.44 | 725.11 | 1226.8 | 1189.7 | 1153.6 | – | – | –
x1 = 0.1998 | – | 745.25 | 737.97 | 730.66 | 1232.4 | 1195.4 | 1159.3 | – | – | –
x1 = 0.201 | – | – | – | – | – | – | – | 1.14 | 0.986 | 0.855
x1 = 0.3 | – | – | – | – | – | – | – | 1.17 | 1.01 | 0.88
x1 = 0.3001 | – | 750.94 | 743.68 | 736.38 | 1238.3 | 1201.3 | 1165.3 | – | – | –
x1 = 0.3998 | – | – | – | – | – | – | – | 1.21 | 1.05 | 0.906
x1 = 0.4001 | – | 756.7 | 749.46 | 742.18 | 1244.3 | 1207.4 | 1171.3 | – | – | –
x1 = 0.5002 | – | – | – | – | – | – | – | 1.25 | 1.08 | 0.935
x1 = 0.5004 | – | 762.59 | 755.35 | 748.09 | 1250.5 | 1213.6 | 1177.6 | – | – | –
x1 = 0.5996 | 775.7 | 768.5 | 761.28 | 754.02 | 1256.8 | 1219.8 | 1183.9 | – | – | –
x1 = 0.5999 | – | – | – | – | – | – | – | 1.3 | 1.12 | 0.966
x1 = 0.6998 | – | – | – | – | – | – | – | 1.34 | 1.15 | 1
x1 = 0.7005 | 781.79 | 774.6 | 767.39 | 760.16 | 1263.4 | 1226.4 | 1190.5 | – | – | –
x1 = 0.7996 | 787.89 | 780.72 | 773.52 | 766.29 | 1270.1 | 1233.1 | 1197.1 | – | – | –
x1 = 0.8001 | – | – | – | – | – | – | – | 1.4 | 1.2 | 1.04
x1 = 0.8997 | 794.16 | 786.99 | 779.8 | 772.58 | 1276.9 | 1239.8 | 1203.6 | – | – | –
x1 = 0.8998 | – | – | – | – | – | – | – | 1.46 | 1.25 | 1.07
x1 = 1 | 800.61 | 793.43 | 786.25 | 779.05 | 1284.2 | 1247.1 | 1211 | 1.52 | 1.3 | 1.12
